Earlier results on 3 compounds are cited in patent US11014971B2, “Peptibodies, compositions thereof, and methods of treating atrial fibrillation” (University of South Florida, priority 2016, dated 2021).

The test system of data set [1] is atrial action potential in a normal heart.
For a further data set, the target named is T1, IKACh (Homo sapiens, UniProt P48544+P48549).
T1 sequence (P48549 1-501): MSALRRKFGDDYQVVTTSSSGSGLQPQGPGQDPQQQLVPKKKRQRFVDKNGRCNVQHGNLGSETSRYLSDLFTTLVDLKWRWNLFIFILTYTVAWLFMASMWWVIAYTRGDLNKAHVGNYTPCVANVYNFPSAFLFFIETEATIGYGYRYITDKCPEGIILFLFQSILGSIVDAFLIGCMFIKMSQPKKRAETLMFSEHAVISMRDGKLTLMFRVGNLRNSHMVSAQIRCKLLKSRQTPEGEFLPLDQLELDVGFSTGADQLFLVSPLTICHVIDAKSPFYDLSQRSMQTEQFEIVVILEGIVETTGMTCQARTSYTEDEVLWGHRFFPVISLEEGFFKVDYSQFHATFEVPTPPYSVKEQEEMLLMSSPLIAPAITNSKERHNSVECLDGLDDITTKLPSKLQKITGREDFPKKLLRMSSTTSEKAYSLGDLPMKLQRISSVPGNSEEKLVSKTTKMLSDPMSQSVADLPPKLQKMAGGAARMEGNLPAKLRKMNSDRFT
T1 sequence (P48544 1-419): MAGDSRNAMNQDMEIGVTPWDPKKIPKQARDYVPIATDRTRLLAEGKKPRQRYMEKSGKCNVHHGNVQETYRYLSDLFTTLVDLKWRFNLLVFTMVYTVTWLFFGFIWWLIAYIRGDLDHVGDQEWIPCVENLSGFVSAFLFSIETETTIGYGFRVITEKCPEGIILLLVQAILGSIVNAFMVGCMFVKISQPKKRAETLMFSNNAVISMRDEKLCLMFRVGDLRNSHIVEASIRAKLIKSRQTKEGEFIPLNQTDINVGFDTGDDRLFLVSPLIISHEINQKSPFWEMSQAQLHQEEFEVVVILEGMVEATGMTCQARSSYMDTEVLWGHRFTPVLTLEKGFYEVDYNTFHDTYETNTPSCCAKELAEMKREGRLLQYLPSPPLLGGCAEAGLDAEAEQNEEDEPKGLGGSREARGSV

Data set [2] deals with paroxysmal AF and atrial flutter in patients.

For Tertiapin, the “Effect on the action potential duration in normal atria” value in data set [1] was “minimal effects”.

Turning to `Cc1cc(CO)nc2cc3c(cc12)OC(C)(C)[C@H](O)[C@H]3NCCc1ccccc1` [NTC-801], the “Concentrations at which IKACh is selectively inhibited” value on IKACh is “submicromolar”. In addition, in data set [2] (paroxysmal AF), the “Reversion of paroxysmal AF in patients” value was “failed to revert”. Regarding `Cc1cc(C(=O)N(C)[C@H](CN2CC(O)C2)C(C)C)ccc1F` [AZD2927], the “Concentrations at which IKACh is selectively inhibited” value at IKACh is recorded as “submicromolar”. The “Reversion of atrial flutter in patients” value in data set [2] (atrial flutter) is reported as “failed to revert”.
